From PubChem BioAssay (NCI)
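Tested at 5 concentrations; 48 h exposure; 96-well plates; endpoints linearly interpolated, else capped at highest concentration. GI50: concentration for 50% inhibition of growth. TGI: total growth inhibition.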

What was measured:
Assay in all cases: inhibition of tumour cell growth, NCI panel, 48 h
SNB-19 CNS = test system: SNB-19 CNS
T-47D breast = test system: T-47D breast
CCRF-CEM leukemia = test system: CCRF-CEM leukemia
UO-31 renal = test system: UO-31 renal
NCI-H226 lung = test system: NCI-H226 lung
786-0 renal = test system: 786-0 renal
K-562 leukemia = test system: K-562 leukemia
TK-10 renal = test system: TK-10 renal
DU-145 prostate = test system: DU-145 prostate
SK-MEL-2 melanoma = test system: SK-MEL-2 melanoma
BT-549 breast = test system: BT-549 breast
SK-OV-3 ovarian = test system: SK-OV-3 ovarian
IGROV1 ovarian = test system: IGROV1 ovarian
CAKI-1 renal = test system: CAKI-1 renal
EKVX NSCLC = test system: EKVX NSCLC
SF-268 CNS = test system: SF-268 CNS
SF-539 CNS = test system: SF-539 CNS
COLO 205 colon = test system: COLO 205 colon
SK-MEL-28 melanoma = test system: SK-MEL-28 melanoma
MDA-MB-435 = test system: MDA-MB-435
HCT-116 colon = test system: HCT-116 colon
MDA-MB-231 breast = test system: MDA-MB-231 breast
UACC-257 melanoma = test system: UACC-257 melanoma
HOP-92 NSCLC = test system: HOP-92 NSCLC
MDA-N = test system: MDA-N
OVCAR-4 ovarian = test system: OVCAR-4 ovarian
OVCAR-3 ovarian = test system: OVCAR-3 ovarian
SW-620 colon = test system: SW-620 colon
U251 CNS = test system: U251 CNS
MCF7 breast = test system: MCF7 breast
HL-60(TB) leukemia = test system: HL-60(TB) leukemia
HS 578T breast = test system: HS 578T breast
LOX IMVI melanoma = test system: LOX IMVI melanoma
SN12C renal = test system: SN12C renal
MOLT-4 leukemia = test system: MOLT-4 leukemia
NCI-H23 lung = test system: NCI-H23 lung
HCT-15 colon = test system: HCT-15 colon
OVCAR-8 ovarian = test system: OVCAR-8 ovarian
SNB-75 CNS = test system: SNB-75 CNS
MALME-3M melanoma = test system: MALME-3M melanoma
PC-3 prostate = test system: PC-3 prostate
KM12 colon = test system: KM12 colon
HT29 colon = test system: HT29 colon
RPMI-8226 leukemia = test system: RPMI-8226 leukemia
SK-MEL-5 melanoma = test system: SK-MEL-5 melanoma
OVCAR-5 ovarian = test system: OVCAR-5 ovarian
A549 NSCLC = test system: A549 NSCLC
HOP-62 NSCLC = test system: HOP-62 NSCLC
NCI-H522 lung = test system: NCI-H522 lung
M14 melanoma = test system: M14 melanoma
UACC-62 melanoma = test system: UACC-62 melanoma
NCI/ADR-RES ovarian = test system: NCI/ADR-RES ovarian
SF-295 CNS = test system: SF-295 CNS
A498 renal = test system: A498 renal
HCC-2998 colon = test system: HCC-2998 colon
NCI-H460 lung = test system: NCI-H460 lung
ACHN renal = test system: ACHN renal
RXF 393 renal = test system: RXF 393 renal
SR leukemia = test system: SR leukemia

CCn1c2c(c3ccccc3c1=O)C(=O)c1ccccc1-2
TGI (SNB-19 CNS): > 100000 nM
TGI (T-47D breast): > 100000 nM
TGI (CCRF-CEM leukemia): > 100000 nM
TGI (UO-31 renal): > 100000 nM
TGI (NCI-H226 lung): > 100000 nM
TGI (786-0 renal): > 100000 nM
TGI (K-562 leukemia): > 100000 nM
TGI (TK-10 renal): > 100000 nM
TGI (DU-145 prostate): > 100000 nM
TGI (SK-MEL-2 melanoma): > 100000 nM
TGI (BT-549 breast): > 100000 nM
TGI (SK-OV-3 ovarian): > 100000 nM
TGI (IGROV1 ovarian): > 100000 nM
TGI (CAKI-1 renal): > 100000 nM
TGI (EKVX NSCLC): > 100000 nM
TGI (SF-268 CNS): > 100000 nM
TGI (SF-539 CNS): 39700 nM
TGI (COLO 205 colon): > 100000 nM
TGI (SK-MEL-28 melanoma): > 100000 nM
TGI (MDA-MB-435): > 100000 nM
TGI (HCT-116 colon): > 100000 nM
TGI (MDA-MB-231 breast): > 100000 nM
TGI (UACC-257 melanoma): > 100000 nM
TGI (HOP-92 NSCLC): > 100000 nM
TGI (MDA-N): > 100000 nM
TGI (OVCAR-4 ovarian): > 100000 nM
TGI (OVCAR-3 ovarian): > 100000 nM
TGI (SW-620 colon): > 100000 nM
TGI (U251 CNS): > 100000 nM
TGI (MCF7 breast): > 100000 nM
TGI (HL-60(TB) leukemia): > 100000 nM
TGI (HS 578T breast): > 100000 nM
TGI (LOX IMVI melanoma): > 100000 nM
TGI (SN12C renal): > 100000 nM
TGI (MOLT-4 leukemia): > 100000 nM
TGI (NCI-H23 lung): > 100000 nM
TGI (HCT-15 colon): > 100000 nM
TGI (OVCAR-8 ovarian): > 100000 nM
TGI (SNB-75 CNS): > 100000 nM
TGI (MALME-3M melanoma): > 100000 nM
TGI (PC-3 prostate): > 100000 nM
TGI (KM12 colon): > 100000 nM
TGI (HT29 colon): > 100000 nM
TGI (RPMI-8226 leukemia): > 100000 nM
TGI (SK-MEL-5 melanoma): > 100000 nM
TGI (OVCAR-5 ovarian): > 100000 nM
TGI (A549 NSCLC): > 100000 nM
TGI (HOP-62 NSCLC): > 100000 nM
TGI (NCI-H522 lung): > 100000 nM
TGI (M14 melanoma): > 100000 nM
TGI (UACC-62 melanoma): > 100000 nM
TGI (NCI/ADR-RES ovarian): > 100000 nM
TGI (SF-295 CNS): > 100000 nM
TGI (A498 renal): > 100000 nM

CCN=c1sc2c(n1NC(=O)c1cc3ccc1CCc1ccc(cc1)CC3)C(=O)c1ccccc1C2=O
GI50 (SNB-19 CNS): 605 nM
TGI (SNB-19 CNS): 1330 nM
GI50 (T-47D breast): 706 nM
TGI (T-47D breast): 2340 nM
GI50 (CCRF-CEM leukemia): 1010 nM
TGI (CCRF-CEM leukemia): 33300 nM
GI50 (UO-31 renal): 356 nM
TGI (UO-31 renal): 960 nM
GI50 (NCI-H226 lung): 2210 nM
TGI (NCI-H226 lung): 7330 nM
GI50 (786-0 renal): 727 nM
TGI (786-0 renal): 1620 nM
GI50 (K-562 leukemia): 920 nM
TGI (K-562 leukemia): 13000 nM
GI50 (TK-10 renal): 9540 nM
TGI (TK-10 renal): 16500 nM
GI50 (DU-145 prostate): 632 nM
TGI (DU-145 prostate): 1160 nM
GI50 (SK-MEL-2 melanoma): 726 nM
TGI (SK-MEL-2 melanoma): 1560 nM
GI50 (BT-549 breast): 511 nM
TGI (BT-549 breast): 974 nM
GI50 (SK-OV-3 ovarian): 4490 nM
TGI (SK-OV-3 ovarian): 8950 nM
GI50 (IGROV1 ovarian): 449 nM
TGI (IGROV1 ovarian): 1310 nM
GI50 (CAKI-1 renal): 496 nM
TGI (CAKI-1 renal): 2860 nM
GI50 (EKVX NSCLC): 632 nM
TGI (EKVX NSCLC): 1660 nM
GI50 (SF-268 CNS): 604 nM
TGI (SF-268 CNS): 1620 nM
GI50 (HCC-2998 colon): 824 nM
TGI (HCC-2998 colon): 2100 nM
GI50 (SF-539 CNS): 556 nM
TGI (SF-539 CNS): 1040 nM
GI50 (COLO 205 colon): 1560 nM
TGI (COLO 205 colon): 3710 nM
GI50 (SK-MEL-28 melanoma): 663 nM
TGI (SK-MEL-28 melanoma): 1180 nM
GI50 (MDA-MB-435): 601 nM
TGI (MDA-MB-435): 1090 nM
GI50 (HCT-116 colon): 754 nM
TGI (HCT-116 colon): 2070 nM
GI50 (MDA-MB-231 breast): 658 nM
TGI (MDA-MB-231 breast): 2720 nM
GI50 (UACC-257 melanoma): 551 nM
TGI (UACC-257 melanoma): 1070 nM
GI50 (NCI-H460 lung): 1310 nM
TGI (NCI-H460 lung): 4860 nM
GI50 (ACHN renal): 492 nM
TGI (ACHN renal): 965 nM
GI50 (HOP-92 NSCLC): 772 nM
TGI (HOP-92 NSCLC): 2830 nM
GI50 (OVCAR-4 ovarian): 469 nM
TGI (OVCAR-4 ovarian): 906 nM
GI50 (OVCAR-3 ovarian): 567 nM
TGI (OVCAR-3 ovarian): 1520 nM
GI50 (SW-620 colon): 593 nM
TGI (SW-620 colon): 1290 nM
GI50 (U251 CNS): 498 nM
TGI (U251 CNS): 1040 nM
GI50 (MCF7 breast): 592 nM
TGI (MCF7 breast): 1300 nM
GI50 (HL-60(TB) leukemia): 815 nM
TGI (HL-60(TB) leukemia): 2300 nM
GI50 (HS 578T breast): 784 nM
TGI (HS 578T breast): 2280 nM
GI50 (LOX IMVI melanoma): 478 nM
TGI (LOX IMVI melanoma): 1240 nM
GI50 (RXF 393 renal): 504 nM
TGI (RXF 393 renal): 976 nM
GI50 (SN12C renal): 520 nM
TGI (SN12C renal): 1060 nM
GI50 (MOLT-4 leukemia): 634 nM
TGI (MOLT-4 leukemia): 1940 nM
GI50 (NCI-H23 lung): 589 nM
TGI (NCI-H23 lung): 1640 nM
GI50 (HCT-15 colon): 569 nM
TGI (HCT-15 colon): 1210 nM
GI50 (OVCAR-8 ovarian): 594 nM
TGI (OVCAR-8 ovarian): 1350 nM
GI50 (SNB-75 CNS): 231 nM
TGI (SNB-75 CNS): 787 nM
GI50 (MALME-3M melanoma): 524 nM
TGI (MALME-3M melanoma): 978 nM
GI50 (PC-3 prostate): 643 nM
TGI (PC-3 prostate): 3050 nM
GI50 (KM12 colon): 1020 nM
TGI (KM12 colon): 3830 nM
GI50 (HT29 colon): 1400 nM
TGI (HT29 colon): 19200 nM
GI50 (RPMI-8226 leukemia): 769 nM
TGI (RPMI-8226 leukemia): 2200 nM
GI50 (SK-MEL-5 melanoma): 563 nM
TGI (SK-MEL-5 melanoma): 1030 nM
GI50 (OVCAR-5 ovarian): 587 nM
TGI (OVCAR-5 ovarian): 1150 nM
GI50 (A549 NSCLC): 738 nM
TGI (A549 NSCLC): 1710 nM
GI50 (HOP-62 NSCLC): 1020 nM
TGI (HOP-62 NSCLC): 2760 nM
GI50 (SR leukemia): 815 nM
TGI (SR leukemia): 9910 nM
GI50 (NCI-H522 lung): 540 nM
TGI (NCI-H522 lung): 1310 nM
GI50 (M14 melanoma): 577 nM
TGI (M14 melanoma): 1110 nM
GI50 (UACC-62 melanoma): 593 nM
TGI (UACC-62 melanoma): 1200 nM
GI50 (NCI/ADR-RES ovarian): 814 nM
TGI (NCI/ADR-RES ovarian): 2390 nM
GI50 (SF-295 CNS): 951 nM
TGI (SF-295 CNS): 2640 nM
GI50 (A498 renal): 4810 nM
TGI (A498 renal): 20900 nM
